In patent EP3381907A1, “SYMMETRICAL 2-AMINOPHENYL-BENZAZOLYL-5-ACETATE COMPOUNDS AND THEIR USE AS ANTI-HEPARANASE” (Leadiant Biosciences SA, priority 2017, dated 2018):

Assays:
heparanase = molecular target: T1, heparanase (Homo sapiens, UniProt Q9Y251); test: AGA*IA assay: colorimetric fondaparinux cleavage assay for heparanase inhibition (WST-1); format: biochemical; conditions: 2.5 nM heparanase, 100 µM fondaparinux, pH 5.0, 3 h at 37°C; class symbols
T1 sequence (Q9Y251 158-543 limits assumed): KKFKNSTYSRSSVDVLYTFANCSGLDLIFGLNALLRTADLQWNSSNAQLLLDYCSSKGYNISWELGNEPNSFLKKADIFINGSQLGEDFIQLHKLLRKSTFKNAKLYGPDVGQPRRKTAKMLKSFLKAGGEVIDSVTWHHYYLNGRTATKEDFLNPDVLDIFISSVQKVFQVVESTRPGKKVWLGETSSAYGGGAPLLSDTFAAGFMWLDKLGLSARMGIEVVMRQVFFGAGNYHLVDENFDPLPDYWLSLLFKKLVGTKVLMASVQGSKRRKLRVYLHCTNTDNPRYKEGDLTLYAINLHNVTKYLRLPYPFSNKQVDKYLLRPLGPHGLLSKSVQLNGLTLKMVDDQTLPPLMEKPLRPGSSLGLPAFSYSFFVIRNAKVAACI
T1 sequence (Q9Y251 36-109 limits assumed): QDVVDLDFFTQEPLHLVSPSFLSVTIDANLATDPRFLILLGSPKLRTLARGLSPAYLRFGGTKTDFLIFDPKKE
Protocol: All compounds were tested in a simple, accurate and robust microplate assay based on the cleavage of the synthetic heparin fragment, the pentasaccharide Fondaparinux (AGA*IA). This assay was originally developed by Hammond and coworkers [Hammond E, Li CP, Ferro V. Development of a colorimetric assay for heparanase activity suitable for kinetic analysis and inhibitor screening. Anal. Biochem. 396(1), 112-116 (2010)], where Fondaparinux corresponds to the methyl glycoside of the antithrombin III (ATIII)-activating pentasaccharide sequence of heparin. Fondaparinux is cleaved by heparanase to generate a reducing disaccharide, which can be quantitatively measured via a colorimetric or a fluorescence assay, the last by the fluorescent sensor polymer-H [Schiemann S, Lühn S, Alban S. Development of both colorimetric and fluorescence heparinase activity assays using fondaparinux as substrate. Anal. Biochem. 427(1), 82-89 (2012)].
The assay measures the appearance of the disaccharide product of heparanase-catalyzed fondaparinux cleavage colorimetrically using the tetrazolium salt WST-1. Assay was essentially performed as described with minor modifications. Briefly, NUNC ELISA 96-well plates were pre-treated with a solution of 4% BSA (bovin serum albumin) in phosphate-buffered saline containing 0.05% Tween 20 (PBST), for 2 h at 37°C, then washed three times with PBST, dried by tapping on paper towel and stored at -20°C. Before use, once again, the plates were washed with PBST.
Assay was carried out with 100 µl/well of assay solution containing 40 mM sodium acetate buffer (pH 5.0), 100 µM fondaparinux, 2.5 nM heparanase and serial dilutions of test compounds (tested in triplicate). Plates were sealed with adhesive tape and incubated, in the dark, for 3 h at 37°C, followed by development with 1.69 mM of the tetrazolium salt WST-1 solution in 0.1 M NaOH, for 1 h at 60°C. Then, the absorbance at 560 nm was measured through a microplate reader (Victor 3, Perkin Elmer).
Finally, the measurements were corrected by subtracting both the reagent background and the inner absorbance value of test compound.

[1] = tested on: HT1080 (human fibrosarcoma); test: SRB Cell Cytotoxicity Assay, HT1080; format: cell-based; conditions: HT-1080, HT1080, 72h treatment, read-out: Concentration (µM) of test compounds at which the cell growth is inhibited by 50 %. HT1080
Text: (§1) SRB Cell Cytotoxicity Assay is an assay based upon the quantitative staining of cellular proteins by sulforhodamine B (SRB). This assay can be used for high-throughput drug screening (Vichai & Kirkitara, Nature Protocol. 2006, 1, 112). Sulforhodamine B is an anionic aminoxanthene dye that forms an electrostatic complex with the basic amino acid residues of proteins under moderately acid conditions, which provides a sensitive linear response.
(§2) To assess a putative antiproliferative activity of the selected compounds, HT1080 (human fibrosarcoma), U87MG (human glioblastoma astrocytoma) and U2OS (human osteosarcoma) cell lines were treated for 72h, in triplicate, with increasing concentrations of heparanase inhibitors. Inhibition of cell proliferation was then measured by the classical colorimetric SRB Cell Cytotoxicity assay. Absorbance was measured by spectrophotometer at a wavelength of 510 nm and cell proliferation was determined as percent with respect to control cells (cells treated with the vehicle alone). EC50 values were then determined by GraphPad Prism.

[2] = tested on: U87MG (human glioblastoma astrocytoma); test: SRB Cell Cytotoxicity Assay, U87MG; format: cell-based; conditions: U-87 MG, 72h treatment, read-out: Concentration (µM) of test compounds at which the cell growth is inhibited by 50 %. U87MG
Text: as §1, §2

[3] = tested on: U2OS (human osteosarcoma); test: SRB Cell Cytotoxicity Assay, U2OS; format: cell-based; conditions: 72h treatment, read-out: Concentration (µM) of test compounds at which the cell growth is inhibited by 50 %. U2OS
Text: as §1, §2

Compound	IC50 (heparanase) [µM]	EC50 [1] [µM]	EC50 [2] [µM]	EC50 [3] [µM]
O=C(O)Cc1ccc2[nH]c(-c3ccc(NC(=O)Nc4ccc(-c5nc6cc(CC(=O)O)ccc6[nH]5)cc4F)c(F)c3)nc2c1 [Compound 4, 2,2'-(((Carbonylbis(azanediyl))bis(3-fluoro-4,1-phenylene))bis(1H-benzo[d]imidazole-2,5-diyl))diacetic acid]	0.5 to 0.99	–	–	–
O=C(O)CNC(=O)Cc1ccc2[nH]c(-c3ccc(NC(=O)Nc4ccc(-c5nc6cc(CC(=O)NCC(=O)O)ccc6[nH]5)cc4F)c(F)c3)nc2c1 [Compound 7, 2,2'-((2,2'-(((carbonylbis(azanediyl))bis(3-fluoro-4,1-phenylene))bis(1H-benzo[d]imidazole-2,5-diyl))bis(acetyl))bis(azanediyl))diacetic acid]	1 to 20	–	–	–
O=C(Cc1ccc2[nH]c(-c3ccc(NC(=O)Nc4ccc(-c5nc6cc(CC(=O)N[C@@H](Cc7ccccc7)C(=O)O)ccc6[nH]5)cc4F)c(F)c3)nc2c1)N[C@@H](Cc1ccccc1)C(=O)O [Compound 8, (2S,2'S)-2,2'-((2,2'-(((Carbonylbis(azanediyl))bis(3-fluoro-4,1-phenylene))bis(1H-benzo[d]imidazole-2,5-diyl))bis(acetyl))bis(azanediyl))bis(3-phenylpropanoic acid)]	0.5 to 0.99	–	–	–
O=C(Cc1ccc2[nH]c(-c3ccc(NC(=O)Nc4ccc(-c5nc6cc(CC(=O)NCB(O)O)ccc6[nH]5)cc4F)c(F)c3)nc2c1)NCB(O)O [Compound 9, (((2,2'-(((Carbonylbis(azanediyl))bis(3-fluoro-4,1-phenylene))bis(1H-benzo[d]imidazole-2,5-diyl))bis(acetyl))bis(azanediyl))bis(methylene))diboronic acid]	1 to 20	–	–	–
O=C(O)Cc1ccc2[nH]c(-c3ccc(NC(=S)Nc4ccc(-c5nc6cc(CC(=O)O)ccc6[nH]5)cc4F)c(F)c3)nc2c1 [Compound 12, 2,2'-(((Thiocarbonylbis(azanediyl))bis(3-fluoro-4,1-phenylene))bis(1H-benzo[d]imidazole-2,5-diyl))diacetic acid]	0.5 to 0.99	–	–	–
O=C(O)Cc1ccc2oc(-c3ccc(NC(=O)Nc4ccc(-c5nc6cc(CC(=O)O)ccc6o5)cc4)cc3)nc2c1 [Compound 19, 2,2'-(((Carbonylbis(azanediyl))bis(4,1-phenylene))bis(benzo[d]oxazole-2,5-diyl))diacetic acid]	1 to 20	> 10	> 10	> 10
O=C(Cc1ccc2oc(-c3ccc(NC(=O)Nc4ccc(-c5nc6cc(CC(=O)N[C@@H](Cc7ccccc7)C(=O)O)ccc6o5)cc4F)c(F)c3)nc2c1)N[C@@H](Cc1ccccc1)C(=O)O [Compound 26, (2S,2'S)-2,2'-((2,2'-(((Carbonylbis(azanediyl))bis(3-fluoro-4,1-phenylene))bis(benzo[d]oxazole-2,5-diyl))bis(acetyl))bis(azanediyl))bis(3-phenylpropanoic acid)]	0.5 to 0.99	> 10	> 10	> 10
CC(C)CCNC(=O)Cc1ccc2oc(-c3ccc(NC(=O)Nc4ccc(-c5nc6cc(CC(=O)NCCC(C)C)ccc6o5)cc4F)c(F)c3)nc2c1 [Compound 28, 2,2'-(((Carbonylbis(azanediyl))bis(3-fluoro-4,1-phenylene))bis(benzo[d]oxazole-2,5-diyl))bis(N-isopentylacetamide)]	1 to 20	–	–	–
CC(C)C[C@H](NC(=O)Cc1ccc2oc(-c3ccc(NC(=O)Nc4ccc(-c5nc6cc(CC(=O)N[C@@H](CC(C)C)B(O)O)ccc6o5)cc4F)c(F)c3)nc2c1)B(O)O [Compound 31, (1R,1'R)-(((2,2'-(((Carbonylbis(azanediyl))bis(3-fluoro-4,1-phenylene))bis(benzo[d]oxazole-2,5-diyl))bis(acetyl))bis(azanediyl))bis(3-methylbutane-1,1-diyl))diboronic acid]	1 to 20	–	–	–
O=C(O)Cc1ccc2oc(-c3ccc(NC(=S)Nc4ccc(-c5nc6cc(CC(=O)O)ccc6o5)cc4)cc3)nc2c1 [Compound 33, 2,2'-(((thiocarbonylbis(azanediyl))bis(4,1-phenylene))bis(benzo[d]oxazole-2,5-diyl))diacetic acid]	1 to 20	–	–	–
O=C(O)Cc1ccc2oc(-c3ccc(NC(=S)Nc4ccc(-c5nc6cc(CC(=O)O)ccc6o5)cc4F)c(F)c3)nc2c1 [Compound 36, 2,2'-(((Thiocarbonylbis(azanediyl))bis(3-fluoro-4,1-phenylene))bis(benzo[d]oxazole-2,5-diyl))diacetic acid]	1 to 20	–	–	–
O=C(O)CNC(=O)Cc1ccc2oc(-c3ccc(NC(=S)Nc4ccc(-c5nc6cc(CC(=O)NCC(=O)O)ccc6o5)cc4F)c(F)c3)nc2c1 [Compound 38, 2,2'-((2,2'-(((Thiocarbonylbis(azanediyl))bis(3-fluoro-4,1-phenylene))bis(benzo[d]oxazole-2,5-diyl))bis(acetyl))bis(azanediyl))diacetic acid]	0.05 to 0.49	> 10	> 10	> 10
N=C(Nc1ccc(-c2nc3cc(CC(=O)O)ccc3o2)cc1)Nc1ccc(-c2nc3cc(CC(=O)O)ccc3o2)cc1 [Compound 40, 2,2'-((((Iminomethylene)bis(azanediyl))bis(4,1-phenylene))bis(benzo[d]oxazole-2,5-diyl))diacetic acid]	1 to 20	–	–	–
